Here are results for 34 compounds from patent US10538491B2, “4,5-substituted picolinamide and picolinonitrile metabotropic glutamate receptor 2 negative allosteric modulators” (Vanderbilt University, priority 2015, dated 2020).

Each structure is given as a SMILES string. A value given as a limit tells only on which side of the number the result lay.

The test system of experiment [1] is group II mGlu receptors (mGlu2 and mGlu3). The note with it: cited from earlier work.
For experiment [2], the system named is C57Bl6/J mice. To be noted: FST; cited from earlier work.
Experiment [3] has as its system Helpless (H) mice. To be noted: cited from earlier work.
Experiment [4] concerns central mGlu2 and mGlu3 receptors. The note with it: in vivo; cited from earlier work.
In experiment [5] the target is rat mGlu2 (Rattus norvegicus (Rat), UniProt P31421). Description: mGlu2 Ca2+ flux assay. The class given is cell-based. To be noted: for IC50: Gα15 HEK293 cells stably expressing rat mGlu2, glutamate EC80, >10,000 = no plateau, >30,000 = no measurable activity; for remaining activity at 30 µM: amplitude of response in the presence of 30 μM test compound as percentage of maximal response to glutamate, read-out: rat mGlu2 Glu max. Summed up:
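Gα15 HEK293 cells stably expressing rat mGlu2, Fluo-4 loaded; compound added, then glutamate at EC20 after 2.3 min and EC80 afterward, calcium flux read as F/F0. Peak amplitude around EC80 addition normalized to glutamate max; IC50 by unconstrained 4-parameter fit, top concentration 30 μM.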
(In general: Calcium flux is commonly read through the fluorescence of an indicator in the cells.)

Sequence of rat mGlu2 (P31421 19-872): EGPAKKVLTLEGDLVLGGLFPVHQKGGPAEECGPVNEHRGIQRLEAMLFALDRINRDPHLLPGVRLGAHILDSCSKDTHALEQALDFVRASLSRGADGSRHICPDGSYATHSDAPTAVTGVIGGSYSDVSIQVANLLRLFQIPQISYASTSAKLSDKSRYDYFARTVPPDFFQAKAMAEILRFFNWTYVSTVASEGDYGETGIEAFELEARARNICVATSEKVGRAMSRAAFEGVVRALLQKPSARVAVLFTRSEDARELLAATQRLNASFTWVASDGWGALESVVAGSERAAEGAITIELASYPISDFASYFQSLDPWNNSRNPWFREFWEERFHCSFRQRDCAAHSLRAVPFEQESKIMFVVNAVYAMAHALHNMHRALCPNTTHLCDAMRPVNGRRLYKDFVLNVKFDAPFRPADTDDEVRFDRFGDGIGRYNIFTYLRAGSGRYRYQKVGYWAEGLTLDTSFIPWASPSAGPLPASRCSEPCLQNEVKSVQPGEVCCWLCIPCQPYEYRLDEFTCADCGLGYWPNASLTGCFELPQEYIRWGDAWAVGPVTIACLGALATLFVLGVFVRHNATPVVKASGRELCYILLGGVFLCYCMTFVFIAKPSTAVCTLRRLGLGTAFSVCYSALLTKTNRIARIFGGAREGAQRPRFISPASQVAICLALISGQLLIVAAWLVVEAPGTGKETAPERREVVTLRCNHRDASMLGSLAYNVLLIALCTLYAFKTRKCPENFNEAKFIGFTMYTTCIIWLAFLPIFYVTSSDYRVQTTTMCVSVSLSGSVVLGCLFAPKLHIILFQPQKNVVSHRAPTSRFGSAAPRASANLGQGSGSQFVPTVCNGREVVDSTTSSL

With `CCCCCCCOC(=O)[C@@]1(F)[C@@H]2C[C@@H](OCc3ccc(Cl)c(Cl)c3)[C@@](N)(C(=O)O)[C@@H]21` [BCI-838], the “duration of inhibition of group II mGlu receptors by brain concentration of active metabolite BCI-632” value in experiment [1] (once-daily dosing of oral prodrug) is 22 h. Besides, the “learning and memory impairment” value in experiment [1] (three months of treatment, Dutch APP transgenic mice) is “reversed Dutch APP transgene-associated learning and memory impairment”. For the same compound, the “levels of monomeric and oAβ peptides in hippocampus and cortex” value in experiment [1] (three months of treatment, two AD mouse models) is “decreased the levels of monomeric and oAβ peptides”. The anxiolytic effects result in experiment [1] (three months of treatment) is listed as “anxiolytic effects”. For the same compound, the “hippocampal progenitor cell proliferation” value in experiment [1] (wild-type and Alzheimer's diseased mice, 3 months) is on record as “stimulated hippocampal progenitor cell proliferation”.

On to `Cc1cc(-c2cccc(C3=Nc4cc(C)c(C(F)(F)F)cc4NC(=O)C3)c2)cc(C)n1` [RO4491533], for which the immobility time result in experiment [2] is listed as “dose-dependently reduced immobility time”. Further, the “activity in the tail suspension test” value in experiment [3] (Helpless (H) mice) was “active”. The “hypolocomotor effect of mGlu2/3 agonist (LY379268)” value in experiment [4] is given as “reversed the hypolocomotor effect”.

As to `CNCCC(Oc1ccc(C(F)(F)F)cc1)c1ccccc1` (stereo not drawn) [fluoxetine], the “antidepressant effect in helpless mice” value in experiment [3] (chronic (21 days) treatment) is on record as “full antidepressant effect”.

What is called IC50 is the concentration that gives 50% inhibition. In the case of `NC(=O)c1cc(-c2ccc(F)cc2)c(OCCOc2ccnc(F)c2)cn1` [Compound 117, 4-(4-fluorophenyl)-5-(2-((2-fluoropyridin-4-yl)oxy)ethoxy)picolinamide], in experiment [5], the IC50 was 615 nM and the remaining activity at 30 µM was 1.02%.

On to `Cc1ncc(OCCCOc2cnc(C(N)=O)cc2-c2ccc(F)cc2)cn1` [Compound 125, 4-(4-fluorophenyl)-5-(3-((2-methylpyrimidin-5-yl)oxy)propoxy)picolinamide], for which, in experiment [5], the IC50 is > 10000 nM and the remaining activity at 30 µM stood at 35.1%.

On to `N#Cc1cc(-c2ccc(F)cc2)c(OCc2ccc(Cl)nc2)cn1` [Compound 7, 5-((6-Chloropyridin-3-yl)methoxy)-4-(4-fluorophenyl)picolinonitrile], for which the IC50 in experiment [5] was > 30000 nM.

For the compound `NC(=O)c1cc(-c2ccc(F)cc2)c(OCCCOc2cccnc2)cn1` [Compound 128, 4-(4-fluorophenyl)-5-(3-(pyridin-3-yloxy)propoxy)picolinamide], in experiment [5], 3780 nM corresponded to half-maximal inhibition (IC50) and the remaining activity at 30 µM was determined as 2.52%.

Turning to `Cc1ccc(OCc2cnc(C(N)=O)cc2-c2ccc(F)cc2)cn1` [Compound 92, 4-(4-fluorophenyl)-5-(((6-methylpyridin-3-yl)oxy)methyl)picolinamide], in experiment [5], the IC50 stood at 1660 nM and the remaining activity at 30 µM is -2.16%.

On to `CC1CN(CCCOc2cnc(C#N)cc2-c2ccc(F)cc2)CCO1` (stereo not drawn) [Compound 72, 4-(4-fluorophenyl)-5-(3-(2-methylmorpholino)propoxy)picolinonitrile], for which, in experiment [5], the IC50 was > 30000 nM.

In the case of `N#Cc1cc(-c2ccc(F)cc2)c(OC2CCN(c3ccnc(C(F)(F)F)c3)C2)cn1` (stereo not drawn) [Compound 27, 4-(4-fluorophenyl)-5-((1-(2-(trifluoromethyl)pyridin-4-yl)pyrrolidin-3-yl)oxy)picolinonitrile], in experiment [5], the IC50 is > 30000 nM.

With `CC1(C)CN(CCCOc2cnc(C#N)cc2-c2ccc(F)cc2)CCO1` [Compound 73, 5-(3-(2,2-dimethylmorpholino)propoxy)-4-(4-fluorophenyl)picolinonitrile], the IC50 in experiment [5] was > 30000 nM.

Regarding `CC(Oc1cnc(C(N)=O)cc1-c1ccc(F)cc1)c1cccnc1` (stereo not drawn) [Compound 47, 4-(4-fluorophenyl)-5-(1-(pyridin-3-yl)ethoxy)picolinamide], in experiment [5], 2710 nM corresponded to half-maximal inhibition (IC50) and the remaining activity at 30 µM worked out at 0.41%.

As to `NC(=O)c1cc(-c2ccc(F)cc2)c(N2CCC(Oc3ccnc(C(F)(F)F)c3)C2)cn1` (stereo not drawn) [Compound 144, 4-(4-fluorophenyl)-5-(3-((2-(trifluoromethyl)pyridin-4-yl)oxy)pyrrolidin-1-yl)picolinamide], in experiment [5], the IC50 amounted to 7450 nM and the remaining activity at 30 µM was 1.28%.

Consider `N#Cc1cc(-c2ccc(F)cc2)c(OCCOc2cccnc2)cn1` [Compound 25, 4-(4-fluorophenyl)-5-(2-(pyridin-3-yloxy)ethoxy)picolinonitrile], for which, in experiment [5], the IC50 is > 10000 nM and the remaining activity at 30 µM stood at 39%.

For the compound `CC(CN1CCOCC1)Nc1cnc(C(N)=O)cc1-c1ccc(F)cc1` (stereo not drawn) [Compound 134, 4-(4-fluorophenyl)-5-((1-morpholinopropan-2-yl)amino)picolinamide], in experiment [5], the IC50 came to 2710 nM and the remaining activity at 30 µM is -3.71%.

For the compound `CN(CCOCc1cncc(F)c1)c1cnc(C#N)cc1-c1ccc(F)cc1` [Compound 76, 4-(4-Fluorophenyl)-5-((2-((5-fluoropyridin-3-yl)methoxy)ethyl)(methyl)amino)picolinonitrile], in experiment [5], the IC50 is > 10000 nM and the remaining activity at 30 µM is 33.3%.

In the case of `Cc1cc(OCCOc2cnc(C(N)=O)cc2-c2ccc(F)cc2)ccn1` [Compound 118, 4-(4-fluorophenyl)-5-(2-((2-methylpyridin-4-yl)oxy)ethoxy)picolinamide], in experiment [5], the IC50 came to 410 nM and the remaining activity at 30 µM is 1.16%.

As for `N#Cc1cc(-c2ccc(F)cc2)c(NCC2CCOCC2)cn1` [Compound 1, 4-(4-fluorophenyl)-5-(((tetrahydro-2H-pyran-4-yl)methyl)amino)picolinonitrile], in experiment [5], half-maximal inhibition (IC50) was put at 6850 nM and the remaining activity at 30 µM is 5.12%.

In the case of `N#Cc1ccccc1COc1cnc(C(N)=O)cc1-c1ccc(F)cc1` [Compound 150, 5-((2-cyanobenzyl)oxy)-4-(4-fluorophenyl)picolinamide], in experiment [5], half-maximal inhibition (IC50) required 98 nM and the remaining activity at 30 µM was found to be 1.14%.

For the compound `Cc1ccc(OCCCOc2cnc(C#N)cc2-c2ccc(F)cc2)cn1` [Compound 68, 4-(4-fluorophenyl)-5-(3-((6-methylpyridin-3-yl)oxy)propoxy)picolinonitrile], in experiment [5], the IC50 is > 10000 nM and the remaining activity at 30 µM was found to be 29%.

For `NC(=O)c1cc(-c2ccc(F)cc2)c(OCCOc2cc(F)cc(Br)c2)cn1` [Compound 102, 5-(2-(3-bromo-5-fluorophenoxy)ethoxy)-4-(4-fluorophenyl)picolinamide], in experiment [5], the IC50 stood at 5240 nM and the remaining activity at 30 µM came out at 3.34%.

Take `N#Cc1cc(-c2ccc(F)cc2)c(OCCCOc2ccc(C(F)(F)F)nc2)cn1` [Compound 66, 4-(4-fluorophenyl)-5-(3-((6-(trifluoromethyl)pyridin-3-yl)oxy)propoxy)picolinonitrile]: the concentration for half-maximal inhibition (IC50) in experiment [5] was > 30000 nM.

For the compound `Cc1ncc(OCCCOc2cnc(C#N)cc2-c2ccc(F)cc2)cn1` [Compound 64, 4-(4-fluorophenyl)-5-(3-((2-methylpyrimidin-5-yl)oxy)propoxy)picolinonitrile], the IC50 in experiment [5] is > 30000 nM.

In the case of `NC(=O)c1cc(-c2ccc(F)cc2)c(OCCOc2cncc(Br)c2)cn1` [Compound 111, 5-(2-((5-bromopyridin-3-yl)oxy)ethoxy)-4-(4-fluorophenyl)picolinamide], in experiment [5], the IC50 was 624 nM and the remaining activity at 30 µM was 1.34%.

Regarding `Cn1cc(-c2cc(C(N)=O)ncc2OCc2cccnc2)cn1` [Compound 82, 4-(1-methyl-1H-pyrazol-4-yl)-5-(pyridin-3-ylmethoxy)picolinamide], the IC50 in experiment [5] was > 30000 nM.

Regarding `NC(=O)c1cc(-c2ccc(F)cc2)c(OCc2cncs2)cn1` [Compound 51, 4-(4-fluorophenyl)-5-(thiazol-5-ylmethoxy)picolinamide], in experiment [5], the midpoint of inhibition, the IC50, lay at 263 nM and the remaining activity at 30 µM was determined as 1.01%.

For `N#Cc1cc(-c2ccc(F)cc2)c(OCCN2CCOCC2)cn1` [Compound 24, 4-(4-fluorophenyl)-5-(2-morpholinoethoxy)picolinonitrile], the IC50 in experiment [5] is > 30000 nM.

In the case of `NC(=O)c1cc(-c2ccc(F)cc2)c(OCCOc2cc(F)cc(F)c2)cn1` [Compound 110, 5-(2-(3,5-difluorophenoxy)ethoxy)-4-(4-fluorophenyl)picolinamide], in experiment [5], it took 1720 nM to reach half-maximal inhibition (IC50) and the remaining activity at 30 µM is 38.7%.

With `N#Cc1cc(F)cc(OCCOc2cnc(C(N)=O)cc2-c2ccc(F)cc2)c1` [Compound 153, 5-(2-(3-cyano-5-fluorophenoxy)ethoxy)-4-(4-fluorophenyl)picolinamide], in experiment [5], the IC50 came out at 1370 nM and the remaining activity at 30 µM worked out at 1.58%.

For the compound `Cc1ccc(COc2cnc(C(N)=O)cc2-c2ccc(F)cc2)cn1` [Compound 41, 4-(4-fluorophenyl)-5-((6-methylpyridin-3-yl)methoxy)picolinamide], in experiment [5], the IC50 was 343 nM and the remaining activity at 30 µM turned out to be 1.59%.

For `NC(=O)c1cc(-c2ccc(C(F)(F)F)nc2)c(OCc2cccnc2)cn1` [Compound 40, 5′-(pyridin-3-ylmethoxy)-6-(trifluoromethyl)[3,4′-bipyridine]-2′-carboxamide], the IC50 in experiment [5] was > 30000 nM.

With `Cn1ccc(COc2cnc(C(N)=O)cc2-c2ccc(F)cc2)n1` [Compound 52, 4-(4-fluorophenyl)-5-((1-methyl-1H-pyrazol-3-yl)methoxy)picolinamide], in experiment [5], half-maximal inhibition (IC50) was put at 66 nM and the remaining activity at 30 µM came to 0.93%.

On to `NC(=O)c1cc(-c2ccc(F)cc2)c(OCCOc2cccc(Br)c2)cn1` [Compound 106, 5-(2-(3-bromophenoxy)ethoxy)-4-(4-fluorophenyl)picolinamide], for which, in experiment [5], the IC50 came to 3440 nM and the remaining activity at 30 µM came to 26.5%. In addition, in experiment [5] (concentration-dependent decrease in the glutamate EC80 response), the NAM designation entry is “(Partial NAM)”.

As for `CC(COc1cnc(C(N)=O)cc1-c1ccc(F)cc1)Oc1cccnc1` (stereo not drawn) [Compound 123, 4-(4-fluorophenyl)-5-(2-(pyridin-3-yloxy)propoxy)picolinamide], in experiment [5], half-maximal inhibition (IC50) was put at 1510 nM and the remaining activity at 30 µM amounted to 0.37%.
